Where a name gives a salt, the structure may show the parent alone. Read-outs that look alike come from different tables or passages of the source.
Assays:
[1] = test system: S. aureus (Sa); test: Broth microdilution MIC, S. aureus; format: cell-based; details: Staphylococcus aureus, read-out: Sa + bicarb 25 (MIC)
Method: (§1) A certified BSL-2 laboratory was used for testing. Compounds were evaluated using the broth microdilution minimum inhibitory concentration (MIC) and minimum bactericidal concentration (MBC) assays defined by Clinical and Laboratory Standards Institute (CLSI) in the M26-A guideline against S. aureus (Sa), E. coli (Ec), K. pneumoniae (Kp), A. baumannii (Ab), E. faecalis (Ef) and P. aeruginosa (Pa).
(§2) MICs were determined using the Clinical Laboratory and Standards Institute (CLSI) Broth Microdilution Method with slight modification. Clinical and Laboratory Standards Institute (2012). “Methods for dilution antimicrobial susceptibility tests for bacteria that grow aerobically; approved standard, 9th ed. M07-A9. Clinical and Laboratory Standards Institute, Wayne, PA.” Serial two-fold dilutions of compounds are prepared in sterile clear round-bottom 96-well plates.
(§3) To prepare microdilution trays, two-fold dilutions of antimicrobial agent are prepared in growth medium: Cation-Adjusted Mueller-Hinton Broth (CAMHB), or CAMHB supplemented with sodium bicarbonate (25 mM final concentration prepared from a 1.0 M stock solution) or CAMHB supplemented with heat inactivated human serum (Fisher Cat. #BP2657100) 0-50% by adding 200 μL of the highest concentration to be tested (64 μg/mL, for example) in row A, mixing and transferring 100 μL from row A to 100 μL growth medium in row B, then repeating the mixing and transferring through row H of the 96-well plate, discarding the excess 100 μL remaining. This slight modification to the CLSI protocol enables evaluation of MICs for 3 compounds per plate in triplicate, albeit with only 8 compound dilutions (CLSI protocol enables 2 compounds in triplicate with 10 dilutions). Bacterial suspensions are added to a final concentration of 5×10^4 CFU/well by adding 5 μL of a 1:10 dilution of a 0.5 McFarland suspension (1×10^8 CFU/mL) for each bacterium evaluated. Bacterial suspensions were prepared using the growth method described by CLSI. Well-isolated colonies (3-5 from an agar plate) were selected using a sterile loop and used to inoculate a tube containing 4 mL of CAMHB. The cultures are incubated at 35±2° C. until it achieves or exceeds the turbidity of the 0.5 McFarland standard, determined by measuring A600nm (usually two to six hours). When growth exceeds a 0.5 McFarland standard, the turbidity is adjusted with broth to be equivalent to a 0.5 McFarland standard.

[2] = test system: E. coli (Ec); test: Broth microdilution MIC, E. coli; format: cell-based; details: Escherichia coli, read-out: E. coli + bicarb 25 (MIC)
Method: as §1, §2, §3

[3] = test system: P. aeruginosa (Pa); test: Broth microdilution MIC, P. aeruginosa; format: cell-based; details: Pseudomonas aeruginosa, read-out: Pa + bicarb 25 (MIC)
Method: as §1, §2, §3

[4] = test system: A. baumannii (Ab); test: Broth microdilution MIC, A. baumannii; format: cell-based; details: Acinetobacter baumannii, read-out: Ab + bicarb 25 (MIC)
Method: as §1, §2, §3

[5] = test system: E. faecalis (Ef); test: Broth microdilution MIC, E. faecalis; format: cell-based; details: Enterococcus faecalis, read-out: Ef + bicarb 25 (MIC)
Method: as §1, §2, §3

[6] = test system: E. coli S30 extract; test: E. coli S30 extract: inhibition of bacterial protein synthesis (luciferase); format: biochemical; details: 37° C. 1 hour
Method: E. coli S30 extract: Inhibition of bacterial protein synthesis was determined using the E. coli S30 Extract System for Circular DNA (Promega catalog #L-2010) and Luciferase Assay Reagent (Promega catalog #E1500) with slight modifications to a published protocol. Fyfe, C., Sutcliffe, J. A. and Grossman, T. H. (2012) “Development and characterization of a Pseudomonas aeruginosa in vitro coupled transcription-translation assay system for evaluation of translation inhibitors” J. Microbiol. Methods 90(3), 256-261.
Compounds were serial diluted in 0.5 mL microcentrifuge tubes by mixing and transferring 50 μL from the highest concentration to 50 μL of water, mixing and transferring 50 μL of this 2-fold dilution to 50 μL of water. This mixing and transferring was repeated so that there are a total of 8 tubes with serial dilutions of compound at 10× the desired screening concentration that are ultimately diluted to 1× by the addition of S30 luciferase synthesis mixture. Serial dilutions of compounds were added (2 μL) to wells in a black round bottom 96-well plate. Water (2 μL) was used as a “no inhibitor” control in 4 wells/plate. No DNA control reaction mixture (20 μL; see below) was used as a control in 4 wells/plate for background luminescence. S30 luciferase synthesis mixture (18 μL; see below) was added to wells with compounds or water mixture and incubated at 37° C. for 1 hour. Reactions were stopped by transferring to 4° C. refrigerator for 5 minutes then 25 μL of luciferase activity mix was added. Luminescence was measured using a BioTek Synergy HTX plate reader. % Inhibition was determined relative to no inhibitor controls.
• 445 μL S30 extract, circular • 712 μL S30 Premix without amino acids • 4.45 μL pBESTluc™ DNA (1 μg/μL) • 78 μL complete amino acid mixture • 267 μL water
• 20 μL S30 extract, circular • 32 μL S30 Premix without amino acids • 7 μL complete amino acid mixture • 21 μL water

[7] = target: Rabbit Reticulocyte Lysate; test: Rabbit Reticulocyte Lysate: inhibition of eukaryotic protein synthesis (luciferase); format: biochemical; details: 30° C. 90 minutes, read-out: Retic. IC50
Method: Inhibition of eukaryotic protein synthesis was determined using the Rabbit Reticulocyte Lysate System, Nuclease-Treated from Promega (catalog #L-4960) with slight modifications to the manufacturer's protocol. Compounds were serial diluted in 0.5 mL microcentrifuge tubes by mixing and transferring 50 μL from the highest concentration to 50 μL of water, mixing and transferring 50 μL of this 2-fold dilution to 50 μL of water. This mixing and transferring was repeated so that there are a total of 8 tubes with serial dilutions of compound at 10× the desired screening concentration that are ultimately diluted to 1× by the addition of rabbit reticulocyte luciferase synthesis mixture. Serial dilutions of compounds were added ([…]) to wells in a black round bottom 96-well plate. Water (2.5 μL) was used as a “no inhibitor” control in 4 wells/plate. No RNA control reaction mixture ([…]; see below) was used as a control in 4 wells/plate for background luminescence. Rabbit reticulocyte luciferase synthesis mixture (22.5 μL; see below) was added to wells with compounds or water mixture and incubated at 30° C. for 90 minutes. Luciferase assay reagent (25 μL) was added with luminescence measured using a BioTek Synergy HTX plate reader. % Inhibition was determined relative to no inhibitor controls.
• 1,000 μL rabbit reticulocyte lysate • 5.7 μL Luciferase Control RNA (1 μg/μL) • 26 μL complete amino acid mixture • 395 μL water
• 70 μL rabbit reticulocyte lysate • 2 μL complete amino acid mixture • 28 μL water

[8] = S. aureus, CAMHB supplemented with sodium bicarbonate 25 mM
[9] = E. coli, CAMHB supplemented with sodium bicarbonate 25 mM
[10] = P. aeruginosa, CAMHB supplemented with sodium bicarbonate 25 mM
[11] = A. baumannii, CAMHB supplemented with sodium bicarbonate 25 mM
[12] = E. faecalis, CAMHB supplemented with sodium bicarbonate 25 mM

Row | SMILES | MIC [1, 8] [mg/L] | MIC [2, 9] [mg/L] | MIC [3, 10] [mg/L] | MIC [4, 11] [mg/L] | MIC [5, 12] [mg/L] | IC50 [6] [µM] | IC50 [7] [µM] | MIC [1] [mg/L] | MIC [2] [mg/L] | MIC [3] [mg/L] | MIC [4] [mg/L] | MIC [5] [mg/L]
1 | CC(C)(N)C(=O)N1CCN(C(=O)Nc2ccn(C3=CCC(CN4C[C@@H]5[C@@H](CN)[C@@H]5C4)CC3)c(=O)n2)CC1 (stereo partly drawn) [Compound 2, 4-(2-Amino-2-methylpropanoyl)-N-(1-(4-((exo-6-(aminomethyl)-3-azabicyclo[3.1.0]hexan-3-yl)methyl)cyclohex-1-en-1-yl)-2-oxo-1,2-dihydropyrimidin-4-yl)piperazine-1-carboxamide hydrochloride salt] | < 8 | < 8 | > 32 | > 32 | < 8 | < 0.5 | ≥ 1 |  |  |  |  | 
2 | CCN(C[C@H]1CC[C@H](n2ccc(NC(=O)N3CCN(C(=O)C(C)(C)N)CC3)nc2=O)CC1)C1CC2(CC(N)C2)C1 (stereo partly drawn) [Compound 50, trans-4-(2-Amino-2-methylpropanoyl)-N-(1-(4-(((6-aminospiro[3.3]heptan-2-yl)(ethyl)amino)methyl)cyclohexyl)-2-oxo-1,2-dihydropyrimidin-4-yl)piperazine-1-carboxamide hydrochloride salt] |  |  |  |  |  | < 0.5 | ≥ 1 | < 8 | < 8 | > 32 | 8 to 32 | < 8
3 | CC(C)(N)C(=O)N1CCN(C(=O)Nc2ccn([C@H]3CC[C@H](CN[C@H]4CC[C@H](N)CC4)CC3)c(=O)n2)CC1 [Compound 18, 4-(2-Amino-2-methylpropanoyl)-N-(1-(trans-4-(((trans-4-aminocyclohexyl)amino)methyl)cyclohexyl)-2-oxo-1,2-dihydropyrimidin-4-yl)piperazine-1-carboxamide hydrochloride salt] |  |  |  |  |  | < 0.5 | ≥ 1 | < 8 | < 8 | > 32 | > 32 | 8 to 32
4 | CC(C)(N)C(=O)N1CCN(C(=O)Nc2ccn(C3=CCC(CN[C@H]4CC[C@H](N)CC4)CC3)c(=O)n2)CC1 (stereo partly drawn) [Compound 1, 4-(2-Amino-2-methylpropanoyl)-N-(1-(4-(((trans-4-aminocyclohexyl)amino)methyl)cyclohex-1-en-1-yl)-2-oxo-1,2-dihydropyrimidin-4-yl)piperazine-1-carboxamide hydrochloride salt] |  |  |  |  |  | < 0.5 | ≥ 1 | < 8 | < 8 | > 32 | > 32 | 8 to 32
5 | CC(C)(N)C(=O)N1CCN(C(=O)Nc2ccn(C3=CCC(CN4CCC5(CC4)CC(N)C5)CC3)c(=O)n2)CC1 (single isomer, unassigned) [Compound 36] | < 8 | < 8 | 8 to 32 | 8 to 32 | < 8 | < 0.5 | ≥ 1 |  |  |  |  | 
6 | CC(C)(N)C(=O)N1CCN(C(=O)Nc2ccn(C3CCC(CN[C@H]4CC[C@H](N)CC4)CC3)c(=O)n2)CC1 (mixture of isomers) [Compound 11, 4-(2-Amino-2-methylpropanoyl)-N-(1-(4-(((trans-4-aminocyclohexyl)amino)methyl)cyclohexyl)-2-oxo-1,2-dihydropyrimidin-4-yl)piperazine-1-carboxamide hydrochloride salt] |  |  |  |  |  | < 0.5 | ≥ 1 | < 8 | < 8 | > 32 | > 32 | < 8
7 | CC(C)(N)C(=O)N1CCN(C(=O)Nc2ccn(C3CCC(CN[C@H]4CC[C@H](N)C4)CC3)c(=O)n2)CC1 (stereo partly drawn) [Compound 13, 4-(2-Amino-2-methylpropanoyl)-N-(1-(4-((((1S,3S)-3-aminocyclopentyl)amino)methyl)cyclohexyl)-2-oxo-1,2-dihydropyrimidin-4-yl)piperazine-1-carboxamide hydrochloride salt] |  |  |  |  |  | < 0.5 | ≥ 1 | < 8 | < 8 | > 32 | > 32 | 8 to 32
8 | CC(C)(N)C(=O)N1CCN(C(=O)Nc2ccn(C3CCC(CN4CCC5(CC4)CC(N)C5)CC3)c(=O)n2)CC1 (stereo not drawn) [Compound 16, 4-(2-Amino-2-methylpropanoyl)-N-(1-(4-((2-amino-7-azaspiro[3.5]nonan-7-yl)methyl)cyclohexyl)-2-oxo-1,2-dihydropyrimidin-4-yl)piperazine-1-carboxamide hydrochloride salt] |  |  |  |  |  | < 0.5 | ≥ 1 | < 8 | < 8 | 8 to 32 | < 8 | < 8
9 | CC(C)(N)C(=O)N1CCN(C(=O)Nc2ccn(C3=CCC(CN4CCCC(N)CC4)CC3)c(=O)n2)CC1 (stereo not drawn) [Compound 4, 4-(2-Amino-2-methylpropanoyl)-N-(1-(4-((4-aminoazepan-1-yl)methyl)cyclohex-1-en-1-yl)-2-oxo-1,2-dihydropyrimidin-4-yl)piperazine-1-carboxamide hydrochloride salt] |  |  |  |  |  | < 0.5 | ≥ 1 | < 8 | < 8 | > 32 | > 32 | < 8

Reference: patent publication US20250084041A1, “ANTIMICROBIAL COMPOUNDS AND METHODS” (Curza Global, LLC, priority 2021, published 2025)
